From US8080632B2, “Peptide mimics of melanocyte stimulating hormone” (The Feinstein Institute for Medical Research, priority 2005, dated 2011)

Assays:
[1] = tested on: Macrophage-like RAW cells; test: Structure function: inhibition of LPS (4 ng/ml)-stimulated TNF release; format: cell-based, murine; details: full range of the dose-response curve
[2] = tested on: RAW cells; test: Cyclic-AMP production in RAW cells; format: cell-based, murine; details: FIG. 8

| Substance | activity in suppressing TNF release relative to MECO-1 [1] | stimulation of cAMP production [2] |
| --- | --- | --- |
| EFG-2: C-terminus of human mitochondrial EF-G2: TLTSGSATFALELSTYQAMNPQDQNTLLNRRSGLT (listed as Homo sapiens) | as active as MECO-1 | – |
| adrenocorticotropic hormone (SYSMEHFRWGKPVGKKRRPVKVYPNGAEDESAEAFPLEF; mammalian melanocortin ACTH (1-39)) [obtained from Bachem Bioscience] | – | dose-dependent fashion |
